Tested on: B16F0 melanoma tumour
Experiment: Biodistribution in B16 melanoma bearing mice
Type: in vivo, C57BL/6J mice
Conditions: B16 melanoma bearing mice
Protocol: Animal experiments were performed in compliance with the NHMRC Australian Code of Practice for the care and use of animals for scientific purposes. Female C57BL/6J black and BALB/c nude albino mice of 5 weeks age were obtained from the Animal Resources Centre, Western Australia. B16F0 murine melanoma cells were originally obtained from European Collection of Cell Cultures (UK) and A375 human amelanotic melanoma cells were originally obtained from American Type Culture Collection (USA). Before transplantation, B16F0 and A375 melanoma cells were maintained as a monolayer in RPMI culture medium supplemented with 10% foetal calf serum and antibiotics and passaged with trypsinisation. Early passages were frozen and stored in liquid nitrogen. Cells were passaged to P=10 and then discarded. Frozen aliquots were grown in a monolayer culture to between 80-95% confluence and for transplantation were trypsinised and washed with Ca^2+ and Mg^2+ free phosphate buffered saline (PBS). For inoculation, B16F0 melanoma cells were resuspended in Ca^2+ and Mg^2+ free PBS at 3 or 5×10^6 viable cells per ml and 0.1 ml was subcutaneously injected at the left flank of 6-7 weeks old C57BL/6J mice. Eleven days later, tumours could be palpated in >98% of inoculated animals. A375 human melanoma cells were resuspended at 1×10^7 viablecells per ml and 0.1 ml was injected subcutaneously at the left flank of 6 weeks old BALB/c nude mice and 25-26 days later tumours could be palpated with ˜60% of inoculated animals developing tumours.
Eleven days (B16F0 melanoma) and 25 days (A375 human melanoma) after tumour transplantation, the [^18F]nicotinamides (0.5-1.5 MBq, 100 μl) and [^123I]nicotinamide (0.37-0.74 MBq, 100 μl) derivatives were injected intravenously via the tail vein into mice (15-18 g). Time points of 1, 3, 6, 24, 48, 72 h after injection were chosen for determining the distribution of each compound in various organs and tissues for the iodine-123 labelled compounds and between 15 min and 6 hours (e.g. 15 min, 30 min, 1 h, 2 h, 4 h or 6 h) were chosen for the ^18F-labelled compounds. At defined times post injection, groups of mice (n=5) were weighed, sacrificed by CO2 administration followed by cervical dislocation and dissected. Selected organs were weighed and their radioactivity measured with a γ-counter. The remaining activity in the carcass was also determined in order to obtain the total activity in the mouse at defined time points. The fraction of injected activity (% ID) in the organ was calculated by comparison with suitable dilutions of the injected dose. Then, the radioactivity concentration in the organ (% ID/g) was found by dividing the % ID for each organ by the weight of the organ.

## CCCCN(C)CCCCNC(=O)c1ccc(F)nc1 [[^18F]MEL4, 6-Fluoro-N-[4-(butyl(methyl)amino)butyl]nicotinamide]
15 min
  uptake BLOOD: 0.68 % ID/g
  uptake BONE: 3.89 % ID/g
  uptake BRAIN: 0.84 % ID/g
  uptake EYES: 11.27 % ID/g
  uptake GIT: 8.23 % ID/g
  uptake HEART: 2.49 % ID/g
  uptake KIDNEY: 15.88 % ID/g
  uptake LIVER: 30.69 % ID/g
  uptake LUNGS: 12.06 % ID/g
  uptake MUSCLE: 2.83 % ID/g
  uptake SKIN: 2.53 % ID/g
  uptake SPLEEN: 11.19 % ID/g
  uptake STOMACH: 8.52 % ID/g
  uptake THYROID: 10.16 % ID/g
  uptake TUMOUR: 4.01 % ID/g
1 h
  uptake BLOOD: 0.32 % ID/g
  uptake BONE: 2.03 % ID/g
  uptake BRAIN: 0.75 % ID/g
  uptake EYES: 12.65 % ID/g
  uptake GIT: 5.78 % ID/g
  uptake HEART: 0.98 % ID/g
  uptake KIDNEY: 4.64 % ID/g
  uptake LIVER: 36.76 % ID/g
  uptake LUNGS: 4.49 % ID/g
  uptake MUSCLE: 1.00 % ID/g
  uptake SKIN: 1.61 % ID/g
  uptake SPLEEN: 7.38 % ID/g
  uptake STOMACH: 3.31 % ID/g
  uptake THYROID: 5.37 % ID/g
  uptake TUMOUR: 4.79 % ID/g
3 h
  uptake BLOOD: 0.21 % ID/g
  uptake BONE: 1.41 % ID/g
  uptake BRAIN: 0.57 % ID/g
  uptake EYES: 14.28 % ID/g
  uptake GIT: 4.18 % ID/g
  uptake HEART: 0.71 % ID/g
  uptake KIDNEY: 2.89 % ID/g
  uptake LIVER: 32.81 % ID/g
  uptake LUNGS: 3.08 % ID/g
  uptake MUSCLE: 0.53 % ID/g
  uptake SKIN: 1.09 % ID/g
  uptake SPLEEN: 5.31 % ID/g
  uptake STOMACH: 2.36 % ID/g
  uptake THYROID: 2.92 % ID/g
  uptake TUMOUR: 5.31 % ID/g
6 h
  uptake BLOOD: 0.14 % ID/g
  uptake BONE: 1.03 % ID/g
  uptake BRAIN: 0.37 % ID/g
  uptake EYES: 15.75 % ID/g
  uptake GIT: 3.08 % ID/g
  uptake HEART: 0.52 % ID/g
  uptake KIDNEY: 1.80 % ID/g
  uptake LIVER: 26.41 % ID/g
  uptake LUNGS: 2.23 % ID/g
  uptake MUSCLE: 0.36 % ID/g
  uptake SKIN: 0.89 % ID/g
  uptake SPLEEN: 4.11 % ID/g
  uptake STOMACH: 1.79 % ID/g
  uptake THYROID: 1.98 % ID/g
  uptake TUMOUR: 5.29 % ID/g

## CCN(CC)CCNC(=O)c1cccnc1F [[^18F]MEL6, 2-Fluoro-N-[2-(diethylamino)ethyl]nicotinantide]
15 min
  uptake BLOOD: 2.8 % ID/g
  uptake BONE: 4.8 % ID/g
  uptake BRAIN: 6.2 % ID/g
  uptake EYES: 36.7 % ID/g
  uptake GIT: 7.8 % ID/g
  uptake HEART: 3.7 % ID/g
  uptake KIDNEY: 16.4 % ID/g
  uptake LIVER: 12.2 % ID/g
  uptake LUNGS: 5.0 % ID/g
  uptake MUSCLE: 4.0 % ID/g
  uptake SKIN: 2.7 % ID/g
  uptake SPLEEN: 11.8 % ID/g
  uptake STOMACH: 14.7 % ID/g
  uptake THYROID: 4.5 % ID/g
  uptake TUMOUR: 10.6 % ID/g
1 h
  uptake BLOOD: 0.9 % ID/g
  uptake BONE: 3.4 % ID/g
  uptake BRAIN: 1.6 % ID/g
  uptake EYES: 38.0 % ID/g
  uptake GIT: 7.1 % ID/g
  uptake HEART: 1.2 % ID/g
  uptake KIDNEY: 4.0 % ID/g
  uptake LIVER: 4.9 % ID/g
  uptake LUNGS: 1.5 % ID/g
  uptake MUSCLE: 1.2 % ID/g
  uptake SKIN: 1.0 % ID/g
  uptake SPLEEN: 9.2 % ID/g
  uptake STOMACH: 6.8 % ID/g
  uptake THYROID: 2.2 % ID/g
  uptake TUMOUR: 14.6 % ID/g
3 h
  uptake BLOOD: 0.2 % ID/g
  uptake BONE: 4.6 % ID/g
  uptake BRAIN: 0.4 % ID/g
  uptake EYES: 36.3 % ID/g
  uptake GIT: 7.1 % ID/g
  uptake HEART: 0.3 % ID/g
  uptake KIDNEY: 0.8 % ID/g
  uptake LIVER: 1.9 % ID/g
  uptake LUNGS: 0.3 % ID/g
  uptake MUSCLE: 0.3 % ID/g
  uptake SKIN: 0.2 % ID/g
  uptake SPLEEN: 2.5 % ID/g
  uptake STOMACH: 1.9 % ID/g
  uptake THYROID: 2.1 % ID/g
  uptake TUMOUR: 17.3 % ID/g
6 h
  uptake BLOOD: 0.1 % ID/g
  uptake BONE: 5.6 % ID/g
  uptake BRAIN: 0.1 % ID/g
  uptake EYES: 27.4 % ID/g
  uptake GIT: 3.6 % ID/g
  uptake HEART: 0.2 % ID/g
  uptake KIDNEY: 0.2 % ID/g
  uptake LIVER: 1.0 % ID/g
  uptake LUNGS: 0.2 % ID/g
  uptake MUSCLE: 0.2 % ID/g
  uptake SKIN: 0.9 % ID/g
  uptake SPLEEN: 0.5 % ID/g
  uptake STOMACH: 0.7 % ID/g
  uptake THYROID: 3.2 % ID/g
  uptake TUMOUR: 4.8 % ID/g

## CCN(CC)CCNC(=O)c1ccnc(F)c1 [[^18F]MEL8, 6-Fluoro-N-[2-(diethylamino)ethyl]isonicotinamide]
15 min
  uptake BLOOD: 2.55 % ID/g
  uptake BONE: 4.03 % ID/g
  uptake BRAIN: 3.47 % ID/g
  uptake EYES: 17.25 % ID/g
  uptake GIT: 7.03 % ID/g
  uptake HEART: 3.51 % ID/g
  uptake KIDNEY: 19.45 % ID/g
  uptake LIVER: 12.65 % ID/g
  uptake LUNGS: 5.67 % ID/g
  uptake MUSCLE: 4.16 % ID/g
  uptake SKIN: 2.40 % ID/g
  uptake SPLEEN: 10.27 % ID/g
  uptake STOMACH: 13.20 % ID/g
  uptake THYROID: 4.81 % ID/g
  uptake TUMOUR: 6.99 % ID/g
1 h
  uptake BLOOD: 0.77 % ID/g
  uptake BONE: 1.52 % ID/g
  uptake BRAIN: 1.37 % ID/g
  uptake EYES: 23.66 % ID/g
  uptake GIT: 2.85 % ID/g
  uptake HEART: 1.14 % ID/g
  uptake KIDNEY: 4.75 % ID/g
  uptake LIVER: 3.19 % ID/g
  uptake LUNGS: 1.81 % ID/g
  uptake MUSCLE: 1.27 % ID/g
  uptake SKIN: 0.88 % ID/g
  uptake SPLEEN: 3.19 % ID/g
  uptake STOMACH: 5.25 % ID/g
  uptake THYROID: 2.22 % ID/g
  uptake TUMOUR: 12.22 % ID/g
3 h
  uptake BLOOD: 0.12 % ID/g
  uptake BONE: 0.77 % ID/g
  uptake BRAIN: 0.19 % ID/g
  uptake EYES: 18.81 % ID/g
  uptake GIT: 0.72 % ID/g
  uptake HEART: 0.33 % ID/g
  uptake KIDNEY: 0.45 % ID/g
  uptake LIVER: 0.42 % ID/g
  uptake LUNGS: 0.37 % ID/g
  uptake MUSCLE: 0.28 % ID/g
  uptake SKIN: 0.15 % ID/g
  uptake SPLEEN: 2.32 % ID/g
  uptake STOMACH: 0.82 % ID/g
  uptake THYROID: 1.48 % ID/g
  uptake TUMOUR: 8.80 % ID/g
6 h
  uptake BLOOD: 0.06 % ID/g
  uptake BONE: 0.43 % ID/g
  uptake BRAIN: 0.07 % ID/g
  uptake EYES: 16.49 % ID/g
  uptake GIT: 0.23 % ID/g
  uptake HEART: 0.17 % ID/g
  uptake KIDNEY: 0.25 % ID/g
  uptake LIVER: 0.60 % ID/g
  uptake LUNGS: 0.14 % ID/g
  uptake MUSCLE: 0.17 % ID/g
  uptake SKIN: 0.29 % ID/g
  uptake SPLEEN: 1.31 % ID/g
  uptake STOMACH: 0.30 % ID/g
  uptake THYROID: 1.02 % ID/g
  uptake TUMOUR: 7.20 % ID/g
